Test results from US11225642B2, “Method for producing renal progenitor cells” (KYOTO UNIVERSITY, priority 2013, dated 2022).

What was measured:
[1] = tested on: OSR1-GFP & SIX2-tdTomato reporter human iPS cell line; test: SIX2-positive cell induction method 1, SIX2-tdTomato-positive cell rate by flow cytometer; format: cell-based; conditions: for SIX2-positive cell rate: induction method 1 stage 3, Dorsomorphin replaced with 0.5 μM LDN193189 and TGFβ1 with 10 ng/ml TGFβ2 or TGFβ3
Protocol: The OSR1-GFP & SIX2-tdTomato reporter human iPS cell line obtained by the method in Example 1 was cultured at 37° C. in a 2-5% CO2 atmosphere to become confluent on 10-cm dishes containing a primate ES/iPS cell medium (ReproCELL) supplemented with 5 ng/ml bFGF (Wako) with the use of SNL cells (McMahon, A. P. and Bradley, A. (1990) Cell 62; 1073-1085) (the cells being treated with 15.5 μg/ml mitomycin (Kyowa Hakko Kirin Co., Ltd.) for 2 to 3 hours and seeded at a density of 3×10^5 cells/10-cm dish) as feeder cells. A CTK solution (2.5% Trypsin (Invitrogen), 1 mg/ml Collagenase IV (Invitrogen), 0.1 M CaCl2, 10 mL KnockOut SR (Invitrogen), and 29.5 mL H2O) was added to dissociate the cells. After removal of the feeder cells, the dissociated cells were suspended in a DMEM/F12 medium containing 1 μM CHIR99021 (Stemgent, 04-0004), 100 ng/ml Activin A (R&D Systems, 338-AC), 1% GlutaMAX (100×) (Invitrogen, 35050-061), 2% FBS (Hyclone), and 0.5% PenStrep (Invitrogen, 10565). Then, the cell suspensions were transferred to a low cell binding plate (LOW CELL BIND 6 WELL DISH (Nunc, 145383)) such that each well contained one-third to one-sixth of the cell suspension obtained from the 10-cm dish, followed by suspension culture at 37° C. in a 5% CO2 atmosphere for 2 days.
The cell mass obtained at stage 1 was transferred to a 24-well or 6-well dish coated with Matrigel (BD Matrigel Matrix Growth Factor Reduced (BD Biosciences, 356230) (the dish being coated with 0.2 mg/ml Matrigel in DMEM and treated at 37° C. for 30 minutes or at 4° C. overnight) or a 24-well or 6-well dish coated with Synthemax (Corning Synthemax II-SC Substrate (Corning, 3535XX1)) (the dish being coated with Synthemax diluted 40-fold with sterile water and treated at room temperature for 2 hours). The medium was exchanged with a DMEM/F12 medium containing 1 μM CHIR99021, 100 ng/ml BMP7 (Recombinant human BMP7 (R&D Systems, 3534-BP)), 0.1% 2-mercaptoethanol (1000×) (Invitrogen, 21985), 1% GlutaMAX (100×), 10% KnockOut SR (Invitrogen), 0.1 mM MEM NEAA (Invitrogen, 11140), and 0.5% PenStrep, followed by adhesion culture at 37° C. in a 5% CO2 atmosphere for 3 to 6 days. In the case of culture for 3 days or more, the medium was exchanged every 3 days with a medium having the same conditions.
The medium was removed from the cells obtained at stage 2. The cells were washed with PBS and then the medium was exchanged with a DMEM/F12 medium containing 5 ng/ml TGFβ1 (Peprotech, 100-21C), 0.5 μM Dorsomorphin (AMPK Inhibitor, Compound C (Merck, 171260)), 0.1% 2-mercaptoethanol (1000×), 1% GlutaMAX (100×), 10% KnockOut SR, 0.1 mM MEM NEAA, and 0.5% PenStrep, followed by suspension culture at 37° C. in a 5% CO2 atmosphere for 15 to 22 days. In this case, the medium was exchanged every 3 days with a medium having the same conditions.
At stage 3 of SIX2-positive cell induction method 1, Dorsomorphin was replaced with 100 ng/ml Noggin (Peprotech), 0.5 μM LDN193189 (Axon MedChem, 1509), or 0.5 μM DMH1 (Tocris, 4126) for differentiation induction in the aforementioned manner.
At stage 3 of SIX2-positive cell induction method 1, TGFβ1 was exchanged with 50 μM IDE1 (Tocris) or 50 μM IDE2 (Tocris) for differentiation induction in the aforementioned manner.
At stage 3 of SIX2-positive cell induction method 1, Dorsomorphin was replaced with 0.5 μM LDN193189, while TGFβ1 with 10 ng/ml TGFβ2 (Peprotech) or 10 ng/ml TGFβ3 (R&D), for differentiation induction in the aforementioned manner. As a result, the SIX2-positive cell rates were 8.6% and 9.3%, respectively (FIGS. 2G and 2H).

[2] = tested on: OSR1-GFP & SIX2-tdTomato reporter human iPS cell line (4A6C3-10); test: SIX2-positive cell induction method 4, OSR1+SIX2+ cell rate by flow cytometer; format: cell-based
Protocol: 4A6C3-10 was cultured at 37° C. in a 2% to 5% CO2 atmosphere to become 70% to 80% confluent on 10-cm dishes containing a primate ES medium (ReproCELL) supplemented with 500 U/ml penicillin/streptomycin (Invitrogen) and 5 ng/ml recombinant human basic fibroblast growth factor (bFGF, Wako) with the use of ICR-mouse-embryo (fetus 12.5 days old)-derived mouse embryonic fibroblasts (MEF) or SNL feeder cells (McMahon, A. P. and Bradley, A. (1990) Cell 62; 1073-1085) (these cells being previously treated with 15.5 μg/ml mitomycin (Kyowa Hakko Kirin Co., Ltd.) for 2 to 3 hours and seeded at a density of 2×10^5 cells/6-cm dish) as feeder cells. The 10-cm plates containing the cells were rinsed with PBS and treated with a CTK solution (PBS containing 0.25% Trypsin (Invitrogen), 0.1% Collagenase IV (Invitrogen), 20% KnockOut SR (KSR, Invitrogen), and 1 mM CaCl2) at 37° C. for 4 minutes. The CTK solution was removed by rinsing with PBS. Then, the medium was exchanged with DMEM/F12+Glutamax (Invitrogen) containing 0.1 mM MEM NEAA (Invitrogen), 1000 U/ml penicillin/streptomycin, 0.55 mM 2-mercaptoethanol (Invitrogen), and 20% KSR. Subsequently, the cells were scraped using a cell scraper and seeded on 6-cm plates coated with 0.2% gelatin to remove feeder cells. One hour later, the cells were washed with DMEM/F12+Glutamax [stage-1 medium] containing 500 U/ml penicillin/streptomycin and 2% FBS (HyClone), transferred to ultra-low attachment dishes (Corning 3471) having a stage-1 medium containing 100 ng/ml recombinant human/mouse/rat Activin A (R&D Systems) and 1 μM CHIR99021, and cultured at 37° C. in a 5% CO2 atmosphere for 2 days.
In order to differentiate into the intermediate mesoderm, the cell mass (embryoid body (EB)) obtained at stage 1 was transferred to a 24-well plate coated with Synthemax II (Corning), the medium was exchanged with DMEM/F12+Glutamax containing 0.1 mM MEM NEAA, 500 U/ml penicillin/streptomycin, 0.55 mM 2-mercaptoethanol, 10% KSR, 100 ng/ml BMP7 (recombinant human BMP7, R&D Systems), and 1 μM CHIR99021, and the cells were cultured at 37° C. in a 5% CO2 atmosphere for 3 days.
After stage 2, the medium was exchanged with DMEM/F12+Glutamax containing 0.1 mM MEM NEAA, 500 U/ml penicillin/streptomycin, 0.55 mM 2-mercaptoethanol, 10% KSR, 1 μM TTNPB (Sigma T3757), and 5 ng/ml TGFβ1 (Peprotech), followed by culturing at 37° C. in a 5% CO2 atmosphere for 5 days. The medium was exchanged with a medium having the same conditions two days after the start of culture (i.e., day 8 from the start of stage 1 (day 1)).
After stage 3, the medium was exchanged with DMEM/F12+Glutamax containing 0.1 mM MEM NEAA, 500 U/ml penicillin/streptomycin, 0.55 mM 2-mercaptoethanol, 10% KSR, 5 ng/ml TGFβ1, and 0.5 μM DMH1 (Tocris), followed by culturing at 37° C. in a 5% CO2 atmosphere for 17 days (i.e., culturing for 28 days in total from the start of stage 1 (day 1); FIG. 3A). In this case, the medium was exchanged every 3 days with a medium having the same conditions. […] In addition, the OSR1^+SIX2^+ cell rate reached the maximum level on day 25 of culture and then it was confirmed to be maintained until day 28 of culture (FIG. 3D).
Induction of OSR1^+SIX2^+ cells from the 4A6C3-10 iPS cell line was examined using different combinations of TGFβ signaling activators and BMP inhibitors. Specifically, induction of OSR1^+SIX2^+ cells from 4A6C3-10 was examined under conditions 1) to 10) described below. […]

[3] = induction method 1 stage 3, TGFβ1 exchanged with 50 μM IDE1 or 50 μM IDE2, with Dorsomorphin
[4] = induction method 1 stage 3, Dorsomorphin replaced with 100 ng/ml Noggin, 0.5 μM LDN193189 or 0.5 μM DMH1, with TGFβ1

`O=C(O)CCCCCC(=O)NN=C1CCCC1` [IDE2, 7-(2-cyclopentylidenehydrazinyl)-7-oxoheptanoic acid] showed an SIX2-tdTomato-positive cell rate [1, 3] of 39.4%.

`c1ccc2c(-c3cnn4cc(-c5ccc(N6CCNCC6)cc5)cnc34)ccnc2c1` [LDN193189, 4-(6-(4-(piperazin-1-yl)phenyl)pyrazolo[1,5-a]pyrimidin-3-yl)quinoline] gave an SIX2-tdTomato-positive cell rate [1, 4] of 20.4%.

`O=C(O)CCCCCC(=O)N/N=C\c1ccccc1C(=O)O` [IDE1, (Z)-2-((2-(6-carboxyhexanoyl)hydrazono)methyl)benzoic acid] gave an SIX2-tdTomato-positive cell rate [1, 3] of 8.4%.

With `CC(C)Oc1ccc(-c2cnc3c(-c4ccnc5ccccc45)cnn3c2)cc1` [DMH1, 4-[6-[4-(1-Methylethoxy)phenyl]pyrazolo[1,5-a]pyrimidin-3-yl]-quinoline] the “induction of OSR1+SIX2+ cells” value ([2]; Example 8, comparison of combinations of TGFβ signaling activators and BMP inhibitors at stage 4 (FIG. 4)) was “effective”, the “OSR1-positive and SIX2-positive (OSR1+SIX2+) cell rate” value ([2]; induction method 4, stage 4 medium with 5 ng/ml TGFβ1 and 0.5 μM DMH1, day 28 of culture) was 32.8% and the SIX2-tdTomato-positive cell rate [1, 4] was 15.4%.

In the case of `NC(=O)c1ccc(-c2nc(-c3ccc4c(c3)OCO4)c(-c3ccccn3)[nH]2)cc1` [SB431542], the “differentiation into OSR1+SIX2+ cells” value ([2]; stage 4 medium with 10 μM SB431542 together with 5 ng/ml TGFβ1 and 0.5 μM DMH1 (condition 11)) is reported as “inhibited”.

B1: TGFβ3: TGFβ signaling activator protein (R&D, Peprotech) (protein, UniProt P10600 301-412, looked up)
Transforming growth factor …: ALDTNYCFRNLEENCCVRPLYIDFRQDLGWKWVHEPKGYYANFCSGPCPYLRSADTTHSTVLGLYNTLNPEASASPCCVPQDLEPLTILYYVGRTPKVEQLSNMVVKSCKCS
For B1, the SIX2-positive cell rate [1] was 9.3%.

B2: TGFβ2: TGFβ signaling activator protein (Peprotech) (protein, UniProt P61812 303-414, looked up)
Transforming growth factor …: ALDAAYCFRNVQDNCCLRPLYIDFKRDLGWKWIHEPKGYNANFCAGACPYLWSSDTQHSRVLSLYNTINPEASASPCCVSQDLEPLTILYYIGKTPKIEQLSNMIVKSCKCS
Molecule B2 has an SIX2-positive cell rate [1] of 8.6%.

B3: Noggin: BMP inhibitor protein (Peprotech) (protein, UniProt Q13253 28-232, looked up)
Noggin: QHYLHIRPAPSDNLPLVDLIEHPDPIFDPKEKDLNETLLRSLLGGHYDPGFMATSPPEDRPGGGGGAAGGAEDLAELDQLLRQRPSGAMPSEIKGLEFSEGLAQGKKQRLSKKLRRKLQMWLWSQTFCPVLYAWNDLGSRFWPRYVKVGSCFSKRSCSVPEGMVCKPSKSVHLTVLRWRCQRRGGQRCGWIPIQYPIISECKCSC
In the case of B3, the SIX2-tdTomato-positive cell rate [1, 4] is reported as 7.5%.
